Read-outs that look alike come from different tables or passages of the source.
What was measured:
[1] = system: Key Broadleaf Weed and Crop Species; assay: Post-emergent Test II herbicidal activity (Table 5); format: in vivo; conditions: post-emergence, 336 h, 14 days after application; for pest or weed control at 70 g/ha: application rate 70 g ai/ha; for pest or weed control at 140 g/ha: application rate 140 g ai/ha
In short: (§1)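 Compounds, dissolved in 97:3 acetone/DMSO and diluted into an aqueous carrier containing crop oil concentrate and Triton X-155, are applied over the top of young plants at 187 L/ha. Injury is scored visually at 14 d, 0% meaning no effect and 100% complete kill.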

[2] = system: Key Grass and Sedge Weeds as well as Grass Crops; assay: Post-emergent Test II herbicidal activity (Table 6); format: in vivo; conditions: post-emergence, 336 h; for pest or weed control at 70 g/ha: 70 g ai/ha; for pest or weed control at 140 g/ha: 140 g ai/ha
In short: as §1

[3] = ABUTH: velvetleaf (Abutilon theophrasti), read-out: Visual Growth Reduction (%) 14 Days After Application, ABUTH
[4] = AMARE: redroot pigweed (Amaranthus retroflexus), read-out: Visual Growth Reduction (%) 14 Days After Application, AMARE
[5] = BRSNN: oilseed-rape, canola (Brassica napus), read-out: Visual Growth Reduction (%) 14 Days After Application, BRSNN
[6] = CHEAL: lambsquarters (Chenopodium album), read-out: Visual Growth Reduction (%) 14 Days After Application, CHEAL
[7] = EPHHL: wild poinsettia (Euphorbia heterophylla), read-out: Visual Growth Reduction (%) 14 Days After Application, EPHHL
[8] = HELAN: sunflower (Helianthus annuus), read-out: Visual Growth Reduction (%) 14 Days After Application, HELAN
[9] = VIOTR: wild pansy (Viola tricolor), read-out: Visual Growth Reduction (%) 14 Days After Application, VIOTR
[10] = CYPES: yellow nutsedge (Cyperus esculentus), read-out: Visual Growth Reduction (%) 14 Days After Application, CYPES
[11] = DIGSA: crabgrass (Digitaria sanguinalis), read-out: Visual Growth Reduction (%) 14 Days After Application, DIGSA
[12] = ECHCG: barnyardgrass (Echinochloa crus-galli), read-out: Visual Growth Reduction (%) 14 Days After Application, ECHCG
[13] = ORYSA: rice (Oryza sativa), crop, read-out: Visual Growth Reduction (%) 14 Days After Application, ORYSA
[14] = SETFA: giant foxtail (Setaria faberi), read-out: Visual Growth Reduction (%) 14 Days After Application, SETFA
[15] = SORVU: grain sorghum (Sorghum vulgare), read-out: Visual Growth Reduction (%) 14 Days After Application, SORVU
[16] = TRZSS (wheat, Triticum aestivum), crop, read-out: Visual Growth Reduction (%) 14 Days After Application, TRZSS
[17] = ZEAMX: maize, corn (Zea mays), crop, read-out: Visual Growth Reduction (%) 14 Days After Application, ZEAMX

Structure (SMILES): Nc1cc(-c2ccc(Br)cc2)nc(C(=O)O)c1Cl [Compound 168]
- pest or weed control at 70 g/ha [1, 3]: 95 to 100%
- pest or weed control at 140 g/ha [1, 3]: 95 to 100%
- pest or weed control at 70 g/ha [1, 4]: 95 to 100%
- pest or weed control at 140 g/ha [1, 4]: 95 to 100%
- pest or weed control at 70 g/ha [1, 5]: 95 to 100%
- pest or weed control at 140 g/ha [1, 5]: 95 to 100%
- pest or weed control at 70 g/ha [1, 6]: 95 to 100%
- pest or weed control at 140 g/ha [1, 6]: 95 to 100%
- pest or weed control at 70 g/ha [1, 7]: 95 to 100%
- pest or weed control at 140 g/ha [1, 7]: 95 to 100%
- pest or weed control at 70 g/ha [1, 8]: 95 to 100%
- pest or weed control at 140 g/ha [1, 8]: 95 to 100%
- pest or weed control at 70 g/ha [1, 9]: 0 to 29%
- pest or weed control at 140 g/ha [1, 9]: 30 to 44%
- pest or weed control at 70 g/ha [2, 10]: 95 to 100%
- pest or weed control at 140 g/ha [2, 10]: 95 to 100%
- pest or weed control at 70 g/ha [2, 11]: 75 to 84%
- pest or weed control at 140 g/ha [2, 11]: 75 to 84%
- pest or weed control at 70 g/ha [2, 12]: 95 to 100%
- pest or weed control at 140 g/ha [2, 12]: 95 to 100%
- pest or weed control at 70 g/ha [2, 13]: 0 to 29%
- pest or weed control at 140 g/ha [2, 13]: 0 to 29%
- pest or weed control at 70 g/ha [2, 14]: 95 to 100%
- pest or weed control at 140 g/ha [2, 14]: 95 to 100%
- pest or weed control at 70 g/ha [2, 15]: 95 to 100%
- pest or weed control at 140 g/ha [2, 15]: 95 to 100%
- pest or weed control at 70 g/ha [2, 16]: 60 to 74%
- pest or weed control at 140 g/ha [2, 16]: 60 to 74%
- pest or weed control at 70 g/ha [2, 17]: 95 to 100%
- pest or weed control at 140 g/ha [2, 17]: 95 to 100%
